According to patent publication US12403125B2, “Use of Ovatodiolide against SARS-CoV-2” (Peking University Shenzhen Graduate School, priority 2020, dated 2025):

Legend:
SARS-CoV-2 pseudovirus = assay: microbe, parasite or virus in culture; assay type: cell-based
[1] = Single-dose oral acute toxicity test in rats; assay type: in vivo, rats (Sprague-Dawley, S D strain)
Procedure: This example was a single-dose oral acute toxicity safety test of the Formula I compound—Ovatodiolide in rats, and a reference for food safety assessment was provided. […] In this experiment, single-dose oral acute toxicity tests of the Formula I compound—ovatodiolide were conducted in rats (Sprague-Dawley, S D strain). The Formula I compound—Ovatodiolide was in the form of yellowish crystals, the test purity was 99.95%, 10% of DMSO was used to prepare a solution concentration of 0.1 g/mL during the experiment, the feeding volume of each rat was 10 mL/kg body weight, the rats were fed orally based on their body weights on that day, the final dose was 1 g/kg-body weight in total, and the rats were continuously observed for 14 days after administration. […] No effects on the serum liver and kidney enzyme values of the male and female rats in the treatment group, including aspartate aminotransferase (AST), alanine aminotransferase (ALT), blood urea nitrogen (BUN), and creatinine, etc.

[2] = 28-day feeding (repeated dose oral) toxicity test in rats; assay type: in vivo, rats (Sprague-Dawley, S D strain)
Procedure: This experiment investigated whether the Formula I compound—Ovatodiolide might cause potential side effect toxicity to human bodies for clinical safety assessment, and 28-day repeated-dose oral toxicity tests of the Formula I compound—Ovatodiolide were conducted to observe clinical side effects. The Formula I compound—Ovatodiolide was a yellowish crystal, the test purity was regarded as 99.95%, and the samples were prepared with 5% of DMSO during the tests. Rats (Sprague-Dawley, S D strain) were divided into 4 groups, the control group (5% of DMSO), the low-dose group (10 mg/kg-body weight), the medium-dose group (25 mg/kg body weight) and the high-dose group (50 mg/kg-body weight), 20 rats in each group, half males and half females, each rat was fed with a volume of 10 mL/kg-body weight, and the rats were orally fed according to their body weight on the day for 28 consecutive days. […] In view of the above test results, after the rats of the low-dose group (10 mg/kg-body weight), the medium-dose group (25 mg/kg-body weight) and the high-dose group (50 mg/kg-body weight) were orally fed respectively with the Formula I compound—Ovatodiolide for 28 days continuously, no toxic reactions was caused to various organs of the male and female rats, and the “No observed adverse effect level” (NOAEL) for the 28-day feeding toxicity test in rats was 50 mg/kg-body weight, the equivalent human dose was about 8 mg/kg-body weight.

CHO-K1 cells = assay: In vitro mammalian chromosome aberration test, with cytotoxicity test; assay type: cell-based; conditions: for survival rate of the CHO-K1 cells: 24 hours
Procedure: In this experiment, the chromosomal aberration test with mammalian cell in culture of the Formula I compound—Ovatodiolide was carried out. The Formula I compound—Ovatodiolide was yellowish crystals, and prepared with Dimethyl sulfoxide (DMSO) during the test. The cytotoxicity test was divided into two parts, in one part, CHO-K1 cells was reacted directly with the Formula I compound—Ovatodiolide, and in the other part, rat liver activating enzyme extract (S9) was used to simulate human metabolism, CHO-K1 cells, the rat liver activating enzyme extract (S9) and the Formula I compound—Ovatodiolide were mixed and then reacted.

[3] = mice; for number of micronuclei in the reticulocytes vs negative control / number of reticulocytes in peripheral blood vs negative control: 48 and 72 hours after administration
Procedure: In this experiment, the Formula I compound—Ovatodiolide on the peripheral blood micronucleus was tested in mice (ICR strain). This experiment mainly tested the effect of the Formula I compound—Ovatodiolide on the ratio of the occurrence of micronucleus in the peripheral blood of the mice (in vivo), so as to evaluate the level of damages caused by directly or indirectly triggered gene mutations of erythrocyte chromosomes or mitosis. ICR mice were used as the experimental subjects of this experiment, and the experiment was divided into 5 groups, the negative control group, the positive control group (Cyclophosphamide, 60 mg/kg bw ip), the Formula I compound—Ovatodiolide low dose (0.25 g/kg bw) group, the medium Dosage (0.5 g/kg bw) group and the high dose (1 g/kg bw) group, 5 mice (male) in each group, and Ovatodiolide was fed once by a gastric tube, 48 and 72 hours after the tested substances were administered, the reticulocytes and the occurrence (%) of micronucleus in the reticulocytes in the peripheral blood of the mice were evaluated.

influenza virus = assay: Test experiments on influenza virus in contrast to Tamiflu
HIV virus = conditions: Fitoterapia, 2000, 71(5): 574-576; cited from earlier work
[4] = male and female rats, 1 g/kg-body weight oral

C=C1C(=O)O[C@@H]2/C=C(\C)C[C@H]3C=C(CC/C=C(\C)CC[C@@H]12)C(=O)O3 [Ovatodiolide]
inhibitory effect on coronavirus infections (SARS-CoV-2 pseudovirus): significant inhibitory effect on coronavirus infections at the micromolar level | IC50 (SARS-CoV-2 pseudovirus; Severe acute respiratory syndrome-related coronavirus, Huh-7, 64 h, read-out: IC50 for inhibiting SARS-CoV-2 infections): 3.73 µM | equivalent human dose of the single acute dose ([1]; from 1 g/Kg-body weight in rats): about 50 mg/kg-body weight | blood values (WBC, RBC, Hct, MCV, MCH, MCHC, platelets, leukocyte classification) [1, 4]: no significant abnormal changes | serum liver and kidney enzyme values (AST, ALT, BUN, creatinine) [1, 4]: No effects | weekly body weight and body weight gain vs control group [1, 4]: no significant difference | histopathological examination of important organs ([1]; rats, 1 g/kg-body weight oral): no histopathological changes in relation to the test substances | acute poisoning or death ([1]; rats, single oral dose 1 g/Kg-body weight, observed 14 days): no acute poisoning or death | equivalent human dose of the NOAEL ([2]; from rat NOAEL, 28-day feeding): about 8 mg/kg-body weight | histopathological examination of organs ([2]; high-dose group (50 mg/kg-body weight), 28 days): no pathological changes related to organ toxicity reaction | body weight changes, feed consumptions, urine, blood values, serum enzyme values and organ weights vs control ([2]; male and female rats, each treatment group, 28 days): within the normal range | symptoms of being poisoned or death ([2]; rats, oral 10, 25 and 50 mg/kg-body weight, 28 days): no symptoms of being poisoned or death | No observed adverse effect level (NOAEL) ([2]; rats, oral, 28 consecutive days): 50 mg/kg-body weight | survival rate of the CHO-K1 cells (CHO-K1 cells; 17.5 μM, without S9 (−S9)): about 65.6% | survival rate of the CHO-K1 cells (CHO-K1 cells; 75 μM, with S9 (+S9)): about 60.3% | frequency of chromosomal aberration in the CHO-K1 cells vs negative control (CHO-K1 cells; 12.5, 15 and 17.5 μM (−S9) and 55, 65 and 75 μM (+S9)): did not increase significantly | number of micronuclei in the reticulocytes vs negative control [3]: no significant difference | number of reticulocytes in peripheral blood vs negative control [3]: no significant difference | micronucleus test result ([3]; each dose group): negative | toxicity symptoms and body weight ([3]; single gastric tube dose 0.25, 0.5, 1 g/kg bw, 48 and 72 hours): no toxicity symptoms and no differences in the body weight | effect on inhibiting influenza virus (influenza virus): excellent effect on inhibiting influenza virus | inhibition of HIV virus (HIV virus): can inhibit HIV virus

O=P1(N(CCCl)CCCl)NCCCO1 (stereo not drawn) [Cyclophosphamide, reference compound]
number of micronuclei in the reticulocytes vs negative control [3]: increased significantly | number of reticulocytes in peripheral blood vs negative control [3]: significantly decreased
